{"source": "patent US11351156B2", "about": "“Combination treatment of pancreatic cancer” (INSERM (Institut National de la Santé et de la Recherche …, priority 2017, dated 2022)", "key": {"pAkt": {"test_system": "pAkt", "assay": "Western blot of Akt phosphorylation in serum-starved, inhibitor-pretreated, stimulated Capan-1 cells", "format": "cell-based, human", "conditions": "for pS473 and pT308Akt levels: Capan-1, after 10 min stimulation with serum", "method": "Pancreatic cancer cell were cultured consistent conditions. Eight hours after plating of cells, they were serum-starved during 16 h, over-night. Cells were pre-treated with inhibitors or their accordingly diluted vehicle (DMSO) during 1 h, then stimulated or not for 10 min or 24 h with 2% FBS, for 10 min with […] EGF, 100 nM Insulin, 50 ng/ml IGF-1, 1 μM LPA, 30 ng/ml PDGF, 200 nM S1P, 1× amino acids or 2 g/l glucose.\nCells were harvested on ice, washed twice with cold PBS, collected, and frozen at −80° C."}, "[1]": {"test_system": "serum-induced phosphopeptides in Capan-1 cells", "assay": "SILAC phosphoproteomics of Capan-1 cells under PI3K inhibition", "format": "cell-based, human", "method": "Light amino acid-labelled and heavy amino acid-labelled Capan-1 cells (respectively called thereafter “light” and “heavy” cells) were washed twice with phosphate buffer saline (PBS; SIGMA; D8537), trypsined (GE Healthcare; L11-002) and plated at a concentration of 2.5.10^6 cells in a 14.4 cm-diameter dish (Dutscher, 055063). After 48 h, cells were serum-starved during 16 h, over-night. Light and heavy cells were pre-treated respectively with inhibitors or their accordingly diluted vehicule (DMSO) during 1 h, then stimulated or not for 10 min or 24 h with 2% dialysed FBS. After 10 min and 24 h of FBS stimulation, heavy cells and light cells were maintained on ice, washed three times with cold PBS and lysed.\nCells were lysed on the plate with 2 mL of lysis buffer (Tris-HCl 100 mM-pH 7.8 (Sigma, T1503), SDS 1% (Sigma, L3771), EDTA 5 mM-pH7.8 (Euromedex, EU-0007-B), proteases and phosphatases inhibitors (Sigma) containing 1× cOmplete Roche proteases inhibitors cocktail (SIGMA, 04693132001), NaF 10 mM (Sigma, S1504), NaPPi 10 mM (Sigma, S6422) and Na3VO4 10 mM (Sigma, 450243)) during 30 min at 4° C. in dark. Cells were scraped, harvested and incubated 20 min at 57° C. To eliminate DNA-dependent viscosity, samples were sonicated (amplitude 40%, pulse 1 sec, interval 1 sec during 60 sec). Three other lysis buffers were also tested (Buffer 1: NH4HCO3 100 mM pH7.8, Urea 8M; Buffer 2: Tris-HCl 100 mM pH7.8, Urea 8M; Buffer 3/RIPA: Tris-HCl50 mM, NaCl 150 mM, Nonidet P-40 1% pH 7.8, SDS 0.1% (w/v)); the chosen buffer allowed the better extraction of phospho-tyrosine proteins as assessed by Western blotting with anti-pY (p-Tyr100) antibody (Cell Signaling Technology; 8954S) as compared to in gel 1-DE profile. Cell lysates were then cleared from insoluble fraction by centrifugation at 10,000×g for 15 min at 25° C., and protein concentration was measured by 2-D Quant kit (GE Healthcare, 80-6483-56). For each biological replicate, light and heavy lysates were mixed at a 1:1 ratio for a total amount of 6 mg.\nProtein samples were reduced with 100 mM DTT (Sigma, D9163) for 35 min at 57° C. and then handled according to the FASP (Filter Aided Sample Preparation) digestion protocol using Amicon Ultra-15 Centrifugal Filter device (10 kDa cut-off, MILLIPORE, UFC901096). The 1st step consisted in the replacement of SDS by urea, then a dilution with UA buffer (Tris-HCl100 mM-pH 8.5, Urea 8M (Sigma, U5128)) and an alkylation with CAA solution (Tris-HCl 100 mM pH 8.5, Urea 8M, Chloroacetamide 50 mM (Sigma, CO267)). For optimization of trypsin efficiency, urea concentration was decreased at 200 mM with Ammonium Bicarbonate buffer (NH4HCO3 0.05M (SIGMA, 09830) and 10 mM phosphatase inhibitors as previously used in lysis buffer). In a 2nd step, Trypsin (Promega, V5117) digestion was performed at 1:50 (w/w) trypsin:protein ratio overnight at 37° C. on the Amicon Ultra-15 Centrifugal Filter. Tryptic peptides were acidified with 1% trifluoroacetic acid (TFA—Sigma, T6508), cleared at 5,000 rpm for 15 minutes at 15° C., and desalted using C18 Sep-Pak plus cartridges (Waters, WAT043395, 500 mg sorbent). Resin was conditioned with 15 mL in 80% Acetonitrile (ACN—Sigma, 34888) then equilibrated with 15 mL in 0.1% TFA. After the loading step, sample was washed with 15 mL in 0.1% TFA, and the elution was performed with 4 mL in 80% ACN, 0.1% TFA). Eluted peptides were lyophilized with a speed-vacuum over night.\nProtocol for the enrichment with TiO2 beads is based on Larsen et al., [45] and Jensen et al.. […]"}, "[2]": {"test_system": "KPC mouse model that rapidly develops PDAC", "conditions": "cited from earlier work; for tumour progression / tumour size: 12-week old KPC mice, 7 day-treated; for murine lethality / survival: treatment started at 8 weeks of age"}, "KPC pancreatic tumour": {"test_system": "KPC pancreatic tumour", "conditions": "cited from earlier work"}, "[3]": {"test_system": "primary patient-derived PDAC cells", "conditions": "mouse, in vivo; cited from earlier work"}, "[4]": {"test_system": "BxPC-3 cancer cells xenografts", "conditions": "given after establishment of xenografts; cited from earlier work"}, "[5]": {"test_system": "AZD6244-resistant tumours", "conditions": "added to AZD6244; cited from earlier work"}, "[6]": {"test_system": "Panc1 cells and human primary Akt2-amplified pancreatic tumour cell", "conditions": "cited from earlier work"}, "[7]": {"test_system": "gemcitabine-resistant metastatic pancreatic cancer", "conditions": "gemcitabine-resistant metastatic pancreatic cancer patients, cited from earlier work"}, "pancreatic cancer": {"test_system": "pancreatic cancer", "conditions": "standard of line chemotherapy; cited from earlier work"}}, "note": "Read-outs that look alike come from different tables or passages of the source.", "data": [{"smiles": "Cc1nc(NC(=O)N2CCC[C@H]2C(N)=O)sc1-c1csc(C(C)(C)C)n1", "note": "[A66]", "values": [{"measurement": "pS473 and pT308Akt levels", "setting": "pAkt", "value": "significantly inhibited"}, {"measurement": "RTK-driven (EGF) short-term phosphorylation of Akt", "setting": "pAkt; EGF stimulation", "value": "inhibited"}, {"measurement": "re-activation of pAkt upon long-term PI3K inhibition", "setting": "pAkt; serum stimulation, time course up to 48 h", "value": "prevents this re-activation of pAkt"}, {"measurement": "number of serum-induced phosphopeptides changed", "setting": "[1]; Capan-1, 10 min", "value": 449}, {"measurement": "number of serum-induced phosphopeptides changed", "setting": "[1]; Capan-1, 24 h", "value": 404}]}, {"smiles": "O=C1NC(=O)/C(=C/c2ccc(-c3ccc(F)cc3O)o2)S1", "note": "[AS-252424]", "values": [{"measurement": "pS473 and pT308Akt levels", "setting": "pAkt", "value": "significantly inhibited"}, {"measurement": "GPCR-driven (LPA) short-term phosphorylation of Akt", "setting": "pAkt; LPA stimulation", "value": "inhibited"}, {"measurement": "number of serum-induced phosphopeptides changed", "setting": "[1]; Capan-1, 10 min", "value": 504}, {"measurement": "number of serum-induced phosphopeptides changed", "setting": "[1]; Capan-1, 24 h", "value": 404}]}, {"smiles": "Cn1cnc2c(F)c(Nc3ccc(Br)cc3Cl)c(C(=O)NOCCO)cc21", "note": "[AZD6244]", "values": [{"measurement": "tumour progression / tumour size", "setting": "[2]", "value": "progressive disease"}, {"measurement": "murine lethality / survival", "setting": "[2]", "value": "nearly no effect"}]}, {"smiles": "Nc1cc(C(F)(F)F)c(-c2cc(N3CCOCC3)nc(N3CCOCC3)n2)cn1", "note": "[BKM120]", "values": [{"measurement": "tumour progression / tumour size", "setting": "[2]", "value": "progressive disease"}, {"measurement": "murine lethality / survival", "setting": "[2]", "value": "nearly no effect"}]}, {"smiles": "CS(=O)(=O)N1CCN(Cc2cc3nc(-c4cccc5[nH]ncc45)nc(N4CCOCC4)c3s2)CC1", "note": "[GDC-0941]", "values": [{"measurement": "disease status", "setting": "KPC pancreatic tumour; 14 days after established tumours detection", "value": "stable disease"}, {"measurement": "pancreatic tumour growth", "setting": "KPC pancreatic tumour; KPC mice, 14 days", "value": "efficiently prevent"}, {"measurement": "response of orthotopic patient-derived PDAC", "setting": "[3]", "value": "responded the same way"}, {"measurement": "tumour volumes", "setting": "[4]", "value": "did not impair tumour volumes"}]}, {"smiles": "O=c1cc(N2CCOCC2)oc2c(-c3ccccc3)cccc12", "note": "[LY-294002]", "values": [{"measurement": "number of serum-induced phosphopeptides changed", "setting": "[1]; Capan-1, 10 min", "value": 427}, {"measurement": "number of serum-induced phosphopeptides changed", "setting": "[1]; Capan-1, 24 h", "value": 258}]}, {"smiles": "Cn1c(=O)n(-c2ccc(C(C)(C)C#N)cc2)c2c3cc(-c4cnc5ccccc5c4)ccc3ncc21", "note": "[NVP-BEZ235]", "values": [{"measurement": "prevention of resistance to AZD6244", "setting": "[5]", "value": "able to prevent this process"}, {"measurement": "combination effect with panobinostat", "setting": "[6]", "value": "additive effect"}, {"measurement": "tumour cell growth", "setting": "[6]", "value": "reduced"}]}, {"smiles": "CO[C@H]1C[C@@H]2CC[C@@H](C)[C@@](O)(O2)C(=O)C(=O)N2CCCC[C@H]2C(=O)O[C@H]([C@H](C)C[C@@H]2CC[C@@H](OCCO)[C@H](OC)C2)CC(=O)[C@H](C)/C=C(\\C)[C@@H](O)[C@@H](OC)C(=O)[C@H](C)C[C@H](C)/C=C/C=C/C=C/1C", "note": "[RAD001]", "values": [{"measurement": "clinical / therapeutic activity", "setting": "[7]", "value": "only a minimal clinical action"}, {"measurement": "tolerability", "setting": "[7]", "value": "well tolerated"}, {"measurement": "clinical / therapeutic activity", "setting": "[7]; listed as Everolimus", "value": "failed to demonstrate the therapeutic activity"}]}, {"smiles": "CO[C@H]1C[C@@H]2CC[C@@H](C)[C@@](O)(O2)C(=O)C(=O)N2CCCC[C@H]2C(=O)O[C@H]([C@H](C)C[C@@H]2CC[C@@H](O)[C@H](OC)C2)CC(=O)[C@H](C)/C=C(\\C)[C@@H](O)[C@@H](OC)C(=O)[C@H](C)C[C@H](C)/C=C/C=C/C=C/1C", "note": "[Sirolimus]", "values": [{"measurement": "tolerability", "setting": "[7]", "value": "well tolerated"}]}, {"smiles": "Cc1cc(C(C)Nc2ccccc2)c2nc(N3CCOCC3)cc(=O)n2c1", "note": "(stereo not shown) [TGX-221]", "values": [{"measurement": "pS473 and pT308Akt levels", "setting": "pAkt", "value": "significantly inhibited"}, {"measurement": "number of serum-induced phosphopeptides changed", "setting": "[1]; Capan-1, 10 min", "value": 436}, {"measurement": "number of serum-induced phosphopeptides changed", "setting": "[1]; Capan-1, 24 h", "value": 437}]}, {"smiles": "CO[C@H]1C[C@@H]2CC[C@@H](C)[C@@](O)(O2)C(=O)C(=O)N2CCCC[C@H]2C(=O)O[C@H]([C@H](C)C[C@@H]2CC[C@@H](OC(=O)C(C)(CO)CO)[C@H](OC)C2)CC(=O)[C@H](C)/C=C(\\C)[C@@H](O)[C@@H](OC)C(=O)[C@H](C)C[C@H](C)/C=C/C=C/C=C/1C", "note": "[Temsirolimus]", "values": [{"measurement": "clinical / therapeutic activity", "setting": "[7]", "value": "failed to demonstrate the therapeutic activity"}]}, {"smiles": "Nc1ccn([C@@H]2O[C@H](CO)[C@@H](O)C2(F)F)c(=O)n1", "note": "[gemcitabine]", "values": [{"measurement": "increase of patient survival", "setting": "pancreatic cancer", "value": "only a few weeks"}]}]}
